Experimental data taken from patent US20240270731A1, “[…]” (ALEBUND PHARMACEUTICALS (HONG KONG) LIMITED, priority 2021, published 2024).

Key:
[1] = system: rat model of hyperlipidemia induced by high cholesterol diet; test: Rat model of hyperlipidemia induced by high cholesterol diet (serum TG, NEFA); format: in vivo, Sprague-Dawley rats; details: for Serum TG / Serum NEFA: mean ± SD, n=6
Text: On the day before the start of the administration (Day 0), the animals were divided into 7 groups based on body weights and serum indicators and were continually fed with the high-cholesterol diet. The treatment groups were orally dosed with either compound or vehicle while continuing the high-cholesterol diet for a total of 1 week. The animals were weighed daily before the treatment, and the compounds were given at 9:00-9:30 in the morning based on the body weight of the day.

[2] = 7-day repeated oral gavage, body weights of ICR mice; format: in vivo; details: for Weight Gain compared with Day 0: n=10
Text: After 3 days of acclimatization, ICR mice were grouped according to their body weights. The day of grouping is designated as Day 0. […] The animals were weighed and recorded daily.

[3] = system: db/db type 2 diabetes model; test: Pharmacodynamics study on the db/db type 2 diabetes model; details: for Statistical difference (p) of the blood glucose level between treatment group and vehicle group: random blood glucose
Text: 45 db/db mice were evenly divided into 5 groups before the initiation of treatment based on the body weights, serum triglyceride (TG) levels, and random blood glucose levels.
All animals were weighed daily before each dosing and treated daily for 14 consecutive days.
All the data was imported into an Excel file and presented as Mean±SEM. Graphpad Prism 7.0 software was used for data statistical analysis by One-way or Two-way ANOVA, with P<0.05 as the criterion of significant differences.

[4] = system: uninephrectomied db/db mice; test: Diabetic nephropathy pharmacodynamic model (uninephrectomied db/db mice); details: Compound 2 treatment, oral once per day
Experimental: Housing temperature was maintained at 22-26° C. and humidity at 40%-60%. Mice were allowed to access food and water ad libitum. […] Buprenorphine was applied after surgery.
Two weeks after surgery, db/db mice were randomly assigned into 5 groups. Wild type mice were used for the control animals. […] Compounds were orally administrated once per day for 10 weeks.
At the 5th and 9th week after compound administration, mice were placed in metabolic cages for urine collection. Albumin level was measured for 24 hr albumin excretion calculation. At the 10th week after treatment, the animals were sacrificed for kidney dissection. The kidney was fixed in 10% neutral buffed formalin, then paraffin-embedded for histopathological analysis. Glomerulosclerosis was assessed by evaluating glomerular basement membrane, mesangial expansion, nodular sclerosis and glomerulosclerosis.
Graphpad 8.0 software was used for statistical analysis. The difference between the values were analyzed with one-way ANOVA. The difference between histopathological score was analyzed with Kruskal-Wallis nonparameter test.

[5] = Day 8, 0.2 mg/kg oral QD x 7 days
[6] = Day 8, 0.6 mg/kg oral QD x 7 days

## [2H]C([2H])(Cc1nc(-c2ccccc2)oc1C)Oc1ccc(C[C@H](OC)C(=O)O)c2sccc12 (single isomer, unassigned) [Compound 2]
[1]; Day 0 (day before treatment), group later dosed 0.2 mg/kg oral QD x 7 days
  Serum TG: 4.27 ± 1.61 mmol/L
[1]; Day 0 (day before treatment), group later dosed 0.6 mg/kg oral QD x 7 days
  Serum TG: 4.11 ± 1.10 mmol/L
[1]; [5]
  Serum NEFA: 431.50 ± 151.63 µmol/L
  Serum TG: 1.71 ± 0.72 mmol/L
[1]; [6]
  Serum NEFA: 444.33 ± 119.12 µmol/L
  Serum TG: 1.86 ± 0.99 mmol/L
[2]; 0.2 mg/kg (Aleglitazar: Day 4 and Day 5; Compound 2: throughout the study)
  Daily average weight gain compared with the vehicle group: no significant difference
[2]; 1 mg/kg (Aleglitazar: Day 6; Compound 2: Day 4 and 5; Compounds 4 and 10: Day 4 to Day 7)
  Daily average weight gain compared with the vehicle group: significantly higher
[2]; Day 1, 0.2 mg/kg oral QD
  Weight Gain compared with Day 0: 0.45 ± 0.28 g
[2]; Day 1, 1 mg/kg oral QD
  Weight Gain compared with Day 0: 0.4 ± 0.17 g
[2]; Day 2, 0.2 mg/kg oral QD
  Weight Gain compared with Day 0: 1.42 ± 0.22 g
[2]; Day 2, 1 mg/kg oral QD
  Weight Gain compared with Day 0: 1.57 ± 0.26 g
[2]; Day 3, 0.2 mg/kg oral QD
  Weight Gain compared with Day 0: 2.56 ± 0.23 g
[2]; Day 3, 1 mg/kg oral QD
  Weight Gain compared with Day 0: 2.71 ± 0.19 g
[2]; Day 4, 0.2 mg/kg oral QD
  Weight Gain compared with Day 0: 2.96 ± 0.23 g
[2]; Day 4, 1 mg/kg oral QD
  Weight Gain compared with Day 0: 3.61 ± 0.19 g
[2]; Day 5, 0.2 mg/kg oral QD
  Weight Gain compared with Day 0: 3.73 ± 0.34 g
[2]; Day 5, 1 mg/kg oral QD
  Weight Gain compared with Day 0: 3.96 ± 0.29 g
[2]; Day 6, 0.2 mg/kg oral QD
  Weight Gain compared with Day 0: 4.66 ± 0.39 g
[2]; Day 6, 1 mg/kg oral QD
  Weight Gain compared with Day 0: 4.84 ± 0.4 g
[2]; Day 7, 0.2 mg/kg oral QD
  Weight Gain compared with Day 0: 5.08 ± 0.42 g
[2]; Day 7, 1 mg/kg oral QD
  Weight Gain compared with Day 0: 5.44 ± 0.36 g
[3]; Day 10 to Day 15, Aleglitazar 0.2 mg/kg, Compound 2 0.05, 0.2, 1 mg/kg
  Average daily body weights compared with the vehicle group: significantly higher
[3]; OGTT Day 14, 0 min, 0.05 mpk
  Statistical difference (p) of the blood glucose level between OGTT treatment group and vehicle group: p > 0.05
[3]; OGTT Day 14, 0 min, 0.2 mpk
  Statistical difference (p) of the blood glucose level between OGTT treatment group and vehicle group: p < 0.01
[3]; OGTT Day 14, 0 min, 1 mpk
  Statistical difference (p) of the blood glucose level between OGTT treatment group and vehicle group: p < 0.0001
[3]; OGTT Day 14, 15 min, 0.05 mpk
  Statistical difference (p) of the blood glucose level between OGTT treatment group and vehicle group: p > 0.05
[3]; OGTT Day 14, 15 min, 0.2 mpk
  Statistical difference (p) of the blood glucose level between OGTT treatment group and vehicle group: p > 0.05
[3]; OGTT Day 14, 15 min, 1 mpk
  Statistical difference (p) of the blood glucose level between OGTT treatment group and vehicle group: p < 0.0001
[3]; OGTT Day 14, 30 min, 0.05 mpk
  Statistical difference (p) of the blood glucose level between OGTT treatment group and vehicle group: p > 0.05
[3]; OGTT Day 14, 30 min, 0.2 mpk
  Statistical difference (p) of the blood glucose level between OGTT treatment group and vehicle group: p > 0.05
[3]; OGTT Day 14, 30 min, 1 mpk
  Statistical difference (p) of the blood glucose level between OGTT treatment group and vehicle group: p < 0.05
[3]; OGTT Day 14, 60 min, 0.05 mpk
  Statistical difference (p) of the blood glucose level between OGTT treatment group and vehicle group: p > 0.05
[3]; OGTT Day 14, 60 min, 0.2 mpk
  Statistical difference (p) of the blood glucose level between OGTT treatment group and vehicle group: p < 0.01
[3]; OGTT Day 14, 60 min, 1 mpk
  Statistical difference (p) of the blood glucose level between OGTT treatment group and vehicle group: p < 0.0001
[3]; OGTT Day 14, 120 min, 0.05 mpk
  Statistical difference (p) of the blood glucose level between OGTT treatment group and vehicle group: p > 0.05
[3]; OGTT Day 14, 120 min, 0.2 mpk
  Statistical difference (p) of the blood glucose level between OGTT treatment group and vehicle group: p < 0.05
[3]; OGTT Day 14, 120 min, 1 mpk
  Statistical difference (p) of the blood glucose level between OGTT treatment group and vehicle group: p < 0.001
[3]; Day 0, 0.05 mpk
  Statistical difference (p) of the blood glucose level between treatment group and vehicle group: p > 0.05
[3]; Day 0, 0.2 mpk
  Statistical difference (p) of the blood glucose level between treatment group and vehicle group: p > 0.05
[3]; Day 0, 1 mpk
  Statistical difference (p) of the blood glucose level between treatment group and vehicle group: p > 0.05
[3]; Day 7, 0.05 mpk
  Statistical difference (p) of the blood glucose level between treatment group and vehicle group: p > 0.05
[3]; Day 7, 0.2 mpk
  Statistical difference (p) of the blood glucose level between treatment group and vehicle group: p > 0.05
[3]; Day 7, 1 mpk
  Statistical difference (p) of the blood glucose level between treatment group and vehicle group: p < 0.05
[3]; Day 14, 0.05 mpk
  Statistical difference (p) of the blood glucose level between treatment group and vehicle group: p > 0.05
[3]; Day 14, 0.2 mpk
  Statistical difference (p) of the blood glucose level between treatment group and vehicle group: p < 0.05
[3]; Day 14, 1 mpk
  Statistical difference (p) of the blood glucose level between treatment group and vehicle group: p < 0.0001
[4]
  Reduction of urine albumin: More than 50%

## CO[C@@H](Cc1ccc(OCCc2nc(-c3ccccc3)oc2C)c2ccsc12)C(=O)O (single isomer, unassigned) [Compound 4]
[1]; 0.2 mg/kg, T-test, P<0.05
  Serum NEFA compared with Aleglitazar: significantly reduce
[1]; Day 8, both 0.2 mg/kg and 0.6 mg/kg
  Serum TG and NEFA levels compared with the vehicle group: significantly reduce
